pEC50: −log10 of the molar value. Each block holds one compound with its values, some of them ahead of it. The source made the active and inactive calls. The calls are words filed in the database; no cut-off is given here.
Key:
Hepatitis B virus [1] = assay: Antiviral activity against HBV infected in human HepAD38 cells assessed as inhibition of viral DNA at 10 uM incubated for 4 days by SYBR green dye based RT-PCR analysis relative to control; format: functional; conditions: HePAD38, 96 h, time 4 day
Hepatitis B virus [2] = assay: Antiviral activity against HBV infected in human HepAD38 cells assessed as inhibition of viral DNA incubated for 4 days by SYBR green dye based RT-PCR analysis; format: functional, organism-based; conditions: HePAD38, 96 h
Hepatitis B virus [3] = assay: Antiviral activity against HBV infected in doxycycline-induced human HepG2-NTCP cells assessed as reduction in HBeAg secretion in supernatant measured from day 2 to 8 post treatment by time resolved fluoroimmunoassay; format: functional, organism-based; conditions: dose microM 2.5-10, time day 2-8
Hepatitis B virus [4] = assay: Antiviral activity against HBV infected in doxycycline-induced human HepG2-NTCP cells assessed as reduction in HBsAg secretion in supernatant measured from day 2 to 8 post treatment by time resolved fluoroimmunoassay; format: functional, organism-based; conditions: dose microM 2.5-10, time day 2-8
Hepatitis B virus [5] = assay: Antiviral activity against HBV infected human HepAD38 cells assessed as reduction in HBV DNA levels preincubated with compound for 4 days measured after 4 days by RT-PCR analysis; format: functional, organism-based
Hepatitis B virus [6] = assay: Antiviral activity against HBV infected human HepAD38 cells assessed as reduction in HBeAg secretion preincubated with compound for 4 days measured after 4 days by […] analysis; format: functional, organism-based
Hepatitis B virus [7] = assay: Antiviral activity against HBV infected human HepAD38 cells assessed as reduction in HBV RNA levels preincubated with compound for 4 days measured after 4 days by RT-PCR analysis; format: functional, organism-based
[8] = Cytotoxicity against human HePAD38 cells assessed as cell viability incubated for 72 hrs by MTT assay; format: cell-based
Hepatitis B virus [9] = assay: Antiviral activity against HBV infected human HepAD38 cells assessed as reduction in HBV cccDNA levels pretreated with tet for 2 days measured after 8 days post treatment with compound by rolling-cycle amplification; format: functional, organism-based; conditions: time 10.0 day
Hepatitis B virus [10] = assay: Antiviral activity against HBV infected human HepAD38 cells assessed as decrease in HBV cccDNA levels pretreated with tet for 2 days measured after 8 days post treatment with compound by southern blot analysis; format: functional, organism-based; conditions: time 10.0 day
Hepatitis B virus [11] = assay: Antiviral activity against HBV infected human HepAD38 cells assessed as decrease in DP-rcDNA levels pretreated with tet for 2 days measured after 8 days post treatment with compound by southern blot analysis; format: functional, organism-based; conditions: time 10.0 day
Hepatitis B virus [12] = assay: Antiviral activity against HBV infected human HepAD38 cells assessed as HBV cccDNA degradation in presence of tet and LAM at 10 uM obtained up to 8 days post treatment by rolling cycle amplification; format: functional, organism-based; conditions: time day <=8
Hepatitis B virus [13] = assay: Antiviral activity against HBV infected human HepAD38 cells assessed as inhibition of total HBV RNA at 10 uM in absence of tet followed by treating with compound after 24 hrs measured after 4 days by RT-qPCR analysis; format: functional, organism-based; conditions: time 4.0 day
Hepatitis B virus [14] = assay: Antiviral activity against HBV infected human HepAD38 cells assessed as inhibition of precRNA at 10 uM in absence of tet followed by treating with compound after 24 hrs measured after 4 days by RT-qPCR analysis; format: functional, organism-based; conditions: time 4.0 day
Hepatitis B virus [15] = assay: Antiviral activity against HBV infected human HepAD38 cells assessed as inhibition of pgRNA at 10 uM in absence of tet followed by treating with compound after 24 hrs measured after 4 days by RT-qPCR analysis; format: functional, organism-based; conditions: time 4.0 day
Hepatitis B virus [16] = assay: Antiviral activity against HBV infected human HepAD38 cells assessed as inhibition of 3.5 kb RNA at 10 uM in absence of tet followed by treating with compound after 24 hrs measured after 4 days by northern blot analysis; format: functional, organism-based; conditions: time 4.0 day
Hepatitis B virus [17] = assay: Antiviral activity against HBV infected human HepAD38 cells assessed as decrease in HBV core proteins measured after 4 days by western blot analysis; format: functional, organism-based; conditions: dose microM 1.25-10, time 4.0 day
Hepatitis B virus [18] = assay: Antiviral activity against HBV infected human HepAD38 cells assessed as decrease in reverse-transcripted ssDNA treated with tet and LAM followed by addition of compound by southern blot analysis; format: functional, organism-based; conditions: dose microM 1.25-10, time 4.0 day
Hepatitis B virus [19] = assay: Antiviral activity against HBV infected human HepAD38 cells assessed as decrease in reverse-transcripted rcDNA treated with tet and LAM followed by addition of compound by southern blot analysis; format: functional, organism-based; conditions: dose microM 1.25-10, time 4.0 day
Hepatitis B virus [20] = assay: Antiviral activity against HBV infected human HepAD38 cells assessed as degradation of HBV RNA; format: functional, organism-based
Hepatitis B virus [21] = assay: Antiviral activity against HBV infected in human HuH7 cells transfected with luciferase reporter plasmid assessed as repression of HBV basal core promoter at 0.25 to 10 uM incubated for 48 hrs by luciferase assay; format: functional, organism-based; conditions: Huh-7, dose microM 0.25-10, time 48.0 hrs
Hepatitis B virus [22] = assay: Antiviral activity against HBV infected in human HuH7 cells transfected with luciferase reporter plasmid assessed as repression of HBV enhancer I at 0.25 to 10 uM incubated for 48 hrs by luciferase assay; format: functional, organism-based; conditions: Huh-7, dose microM 0.25-10, time 48.0 hrs
Hepatitis B virus [23] = assay: Antiviral activity against HBV infected in human HuH7 cells assessed as reduction in the expression of viral mRNA at 10 uM incubated for 4 days by FPKM analysis; format: functional, organism-based; conditions: Huh-7, time 4.0 day
[24] = Downregulation of ZBED6 in HBV infected human HepAD38 cells assessed as inhibition rate at 10 uM in absence of tet incubated with compound for 4 days followed by RNA extraction with trizol reagent measured by qRT-PCR analysis relative to control; format: functional; conditions: Hepatitis B virus, HePAD38, 96 h, time 4 day
[25] = Downregulation of ZBTB7B in HBV infected human HepAD38 cells assessed as inhibitory rate at 10 uM in absence of tet incubated with compound for 4 days followed by RNA extraction with trizol reagent and measured by qRT-PCR analysis relative to control; format: functional; conditions: Hepatitis B virus, HePAD38, 96 h, time 4 day
[26] = Cytotoxicity against human HepG2 cells assessed as cell viability incubated for 72 hrs by MTT assay; format: cell-based

pEC50 (Hepatitis B virus [2]): 6.08
pEC50 (Hepatitis B virus [5]): 6.08
pEC50 (Hepatitis B virus [6]): 5.11
pEC50 (Hepatitis B virus [7]): 5.54
SMILES: C=C1CC[C@H](OC(C)=O)[C@]2(C)[C@@H](OC(C)=O)/C=C/C(=C)[C@H](Cl)[C@@H]3OC(=O)[C@H](C)[C@@]3(O)[C@@H](OC(C)=O)[C@@H]12
inhibition at 10 µM (Hepatitis B virus [1]): 64%
Activity (Hepatitis B virus [3]): Dose-dependent effect
Activity (Hepatitis B virus [4]): Dose-dependent effect
CC50 at 72 h [8]: > 100 µM
Activity (Hepatitis B virus [9]): Active
Activity (Hepatitis B virus [10]): Active
Activity (Hepatitis B virus [11]): Active
Activity (Hepatitis B virus [12]): inactive
inhibition (Hepatitis B virus [13]): Active
inhibition (Hepatitis B virus [14]): Active
inhibition (Hepatitis B virus [15]): Active
inhibition (Hepatitis B virus [16]): Active
Activity (Hepatitis B virus [17]): Dose-dependent effect
Activity (Hepatitis B virus [18]): Dose-dependent effect
Activity (Hepatitis B virus [19]): Dose-dependent effect
Activity (Hepatitis B virus [20]): inactive
Activity (Hepatitis B virus [21]): Active
Activity (Hepatitis B virus [22]): Active
Activity (Hepatitis B virus [23]): Active
inhibition at 10 µM [24]: 28%
inhibition at 10 µM [25]: 32%
CC50 at 72 h [26]: > 100 µM

pEC50 (Hepatitis B virus [2]): 5.28
SMILES: C=C1/C=C/[C@H](OC(C)=O)[C@@]2(C)[C@@H](OC(C)=O)CC[C@]3(CO3)[C@@H]2[C@H](OC(C)=O)[C@]2(O)[C@@H](C)C(=O)O[C@H]2[C@H]1Cl [JUNCEELLOLIDE C]
inhibition at 10 µM (Hepatitis B virus [1]): 63%
CC50 at 72 h [8]: > 100 µM
CC50 at 72 h [26]: > 100 µM

pEC50 (Hepatitis B virus [2]): 6.09
SMILES: C=C1/C=C/[C@H](OC(=O)CC)[C@@]2(C)[C@@H](OC(C)=O)CC[C@]3(CO3)[C@@H]2[C@H](OC(C)=O)[C@]2(O)[C@@H](C)C(=O)O[C@H]2[C@H]1Cl
inhibition at 10 µM (Hepatitis B virus [1]): 75%
CC50 at 72 h [8]: > 100 µM
CC50 at 72 h [26]: > 100 µM

SMILES: C=C1CC[C@H](OC(C)=O)[C@]2(C)[C@@H](OC(C)=O)/C=C/[C@]3(CO3)[C@H](Cl)[C@@H]3OC(=O)[C@H](C)[C@@]3(O)[C@@H](OC(C)=O)[C@@H]12
inhibition at 10 µM (Hepatitis B virus [1]): 0%
CC50 at 72 h [8]: > 100 µM
CC50 at 72 h [26]: > 100 µM

SMILES: CC(=O)OCC(=O)O[C@H]1/C=C\C(COC(C)=O)=C/[C@@H]2OC(=O)[C@H](C)[C@@]2(O)[C@@H](OC(C)=O)[C@H]2[C@]3(CC[C@H](OC(C)=O)[C@]12C)CO3
inhibition at 10 µM (Hepatitis B virus [1]): 0%
CC50 at 72 h [8]: > 100 µM
CC50 at 72 h [26]: > 100 µM

SMILES: CC(=O)OC/C1=C/[C@@H]2OC(=O)[C@H](C)[C@@]2(O)[C@@H](OC(C)=O)[C@H]2[C@]3(CC[C@H](OC(C)=O)[C@]2(C)[C@@H](OC(C)=O)C[C@H]1OC(C)=O)CO3
inhibition at 10 µM (Hepatitis B virus [1]): 0%
CC50 at 72 h [8]: > 100 µM
CC50 at 72 h [26]: > 100 µM

SMILES: C=C1CC[C@H](OC(C)=O)[C@]2(C)[C@@H](OC(C)=O)C[C@@H](OC(C)=O)/C(C)=C\[C@@H]3OC(=O)[C@H](C)[C@@]3(O)[C@@H](OC(C)=O)[C@@H]12
inhibition at 10 µM (Hepatitis B virus [1]): 31%
CC50 at 72 h [8]: > 100 µM
CC50 at 72 h [26]: > 100 µM

— ChEMBL document CHEMBL4725284, “Junceellolide B, a novel inhibitor of Hepatitis B virus” (Bioorg Med Chem, 2020)
